How the values were obtained:
[1] = test system: protein synthesis of Ehrlich ascites cells; assay: In vitro whole cell incorporation: protein synthesis; format: cell-based, mouse; conditions: preliminary, 60 min, read-out: ID50, protein synthesis
Description: CF1 male mice (~30 g) were implanted with 2×10^6 Ehrlich ascites tumor cells, intraperitoneally on Day 0. Compound I was suspended by homogenation in 0.05% polysorbate.80-water and administered intraperitoneally at 10 and 20 mg/kg for 9 days to determine its effectiveness for inhibition of tumor growth. Mice were sacrificed on Day 10, and the ascites fluid was collected from the peritoneal cavity. The volume and ascrit (packed cell volume) were determined for each animal and the percent inhibition of tumor growth was calculated. For the metabolic studies, mice were treated on Days 8 and 9 with 10 mg/kg of Compound I, intraperitoneally. The animal was sacrificed on Day 10 and the ascites fluid harvested. The in vitro metabolic studies were performed at […] final concentration of Compound I.
In vitro incorporation of ^3 H-thymidine, ^3 H-uridine, or ^3 H-leucine was determined using 10^6 Ehrlich ascites cells, 1 μCi labeled precursor, minimum essential medium and varying final concentrations of drug from 0.25-1.0 mM. The tubes were incubated at 37° C. for 60 min and inactivated by trichloroacetic acid. The acid insoluble labeled deoxyribonucleic acid was collected on GF/F glass filter discs and ribonucleic acid and protein were precipitated on nitrocellulose filters by vacuum suction. Results are expressed as dpm of incorporated precursor per hour per 10^6 cells.

[2] = test system: Cholesterol Side Chain Oxidation; assay: In vitro liver enzyme study: cholesterol side chain oxidation; format: biochemical, mouse
Description: In vitro enzymatic studies were determined using 10% homogenates of CF1 male mouse liver with 50-200 μM of test drugs. In vivo enzymatic studies were determined using 10% homogenates of liver from CF1 male mice obtained after administering the agents for 16 days at a dose ranging from 2.5-20 mg/kg/day intraperitoneally. The liver homogenates for both in vitro and in vivo studies were prepared in 0.25M sucrose and 0.001M (ethylenedinitrilo)tetraacetic acid. Acetyl coenzyme A synthetase and adenosine triphosphate dependent citrate lyase activities were determined spectrophotometrically at 540 nm as the hydroxylamate of acetyl coenzyme A formed after 30 min at 37° C. Mitochondrial citrate exchange was determined by the procedure of Robinson et al [Eur. J. Biochem., 216, 63 (1970)] using ^14 C-sodium bicarbonate (41 mCi/mmol) incorporated into mitochondrial ^14 C-citrate after isolating rat mitochondria (9000 g×10 min) from the homogenates. The exchanges of the ^14 C-citrate were determined after incubating the mitochondrial fraction which was loaded with labeled citrate and test drugs for 10 min. Then the radioactivity was measured in the mitochondrial and supernantant fractions in scintillation fluid and expressed as a percentage. […] Acyl transferase activity was determined with glycerol-3phosphate [L-2-^3 H(N)] […] HCl and counted. […]

[3] = test system: sn-Glycerol-3-phosphate Acyl Transferase; assay: In vitro liver enzyme study: sn-glycerol-3-phosphate acyl transferase; format: biochemical, mouse; conditions: in vitro CF1 liver
Description: In vitro enzymatic studies were determined using 10% homogenates of CF1 male mouse liver with 50-200 μM of test drugs. In vivo enzymatic studies were determined using 10% homogenates of liver from CF1 male mice obtained after administering the agents for 16 days at a dose ranging from 2.5-20 mg/kg/day intraperitoneally. The liver homogenates for both in vitro and in vivo studies were prepared in 0.25M sucrose and 0.001M (ethylenedinitrilo)tetraacetic acid. Acetyl coenzyme A synthetase and adenosine triphosphate dependent citrate lyase activities were determined spectrophotometrically at 540 nm as the hydroxylamate of acetyl coenzyme A formed after 30 min at 37° C. Mitochondrial citrate exchange was determined by the procedure of Robinson et al [Eur. J. Biochem., 216, 63 (1970)] using ^14 C-sodium bicarbonate (41 mCi/mmol) incorporated into mitochondrial ^14 C-citrate after isolating rat mitochondria (9000 g×10 min) from the homogenates. The exchanges of the ^14 C-citrate were determined after incubating the mitochondrial fraction which was loaded with labeled citrate and test drugs for 10 min. Then the radioactivity was measured in the mitochondrial and supernantant fractions in scintillation fluid and expressed as a percentage. Cholesterol side chain oxidation was determined by the method of Kritchevsky and Tepper [Artherosclerosis, 18, 93 (1973)] using (26-^14 C) cholesterol (50 mCi/mmol) and mitochondria isolated from rat liver homogenates. […] Fatty acid synthetase activity was determined by the method of Brady et al [J. Biol. Chem., 235, 3093 (1960)] using [2-^14 C] malonyl-coenzyme A (37.5 mCi/mmol) which was incorporated into newly synthesized fatty acids that were extracted with ether and counted. Acyl transferase activity was determined with glycerol-3phosphate [L-2-^3 H(N)] […] HCl and counted. Phosphatidate phosphohydrolase activity was measured as the inorganic phosphate released after 30 min from phosphatidic acid by the method of Mavis et al [J. Lipid Res., 19, 467 (1978)]. […]

CF1 male mice = assay: Mouse liver lipid content; format: in vivo; conditions: 16 days
Description: In CF1 male mice that had been administered test drugs for 16 days, the liver, small intestine and fecal materials (24 hr collection) were removed and a 10% homogenate in 0.25M sucrose+0.001M (ethylenedinitrilo)tetraacetic acid was prepared. An aliquot (2 ml) of the homogenate was extracted by the methods of Floch et al [J. Biol. Chem., 226, 497 (1957)] and Bligh and Dyer [Can. J. Biochem. Physiol., 37, 911 (1957)] and the number of mg of lipid weighed. The lipid was taken up in methylene chloride and the cholesterol level triglyceride levels, neutral lipid content and phospholipid content were determined.
Data are expressed in the Table 2-7 as percent of control ± the standard deviation. The probable significant level (P) between each test group and the control group was determined by the Student's "t" test.

With “{Cu[(CH3)3 N.BH2 CO2 ]2.(CH3)3 N.BH2 COOH} [Compound I]” as the substance, how does the IC50 [1] read?
The IC50 was 863 µM.

And the “Cholesterol Side Chain Oxidation” value ([2]; in vitro CF1 liver, 100 μM)?
Its value is 152 ± 7 Percent Control.

And the “degradation of cholesterol by oxidation of the side chain accelerated” value ([2]; in vitro, in the presence of drug)?
Its value is 52%.

What about the “sn-Glycerol-3-phosphate Acyl Transferase” value ([3]; 50 μM) of the same substance?
Its value is 108 ± 6 Percent Control.

And the “sn-Glycerol-3-phosphate Acyl Transferase” value ([3]; 100 μM)?
The value was 92 ± 8 Percent Control.

What about the “sn-Glycerol-3-phosphate Acyl Transferase” value ([3]; 200 μM) of the same substance?
The value was 89 ± 6 Percent Control.

What about the Cholesterol (CF1 male mice; 2.5 mg/kg) of the same substance?
The Cholesterol was 71 ± 6% of control.

And the “Mg of Lipid” value (CF1 male mice; 2.5 mg/kg)?
Its value is 82 ± 5% of control.

And the “Neutral Lipids” value (CF1 male mice; 2.5 mg/kg)?
The value was 79 ± 5% of control.

And the Phospholipids (CF1 male mice; 2.5 mg/kg)?
The Phospholipids was 67 ± 6% of control.

What about the Protein (CF1 male mice; 2.5 mg/kg) of the same substance?
Its Protein is 105 ± 6% of control.

What about the Triglycerides (CF1 male mice; 2.5 mg/kg) of the same substance?
The Triglycerides was 40 ± 3% of control.

And the Cholesterol (CF1 male mice; 5.0 mg/kg)?
Its Cholesterol is 74 ± 7% of control.

What about the “Mg of Lipid” value (CF1 male mice; 5.0 mg/kg) of the same substance?
Its value is 85 ± 6% of control.

And the “Neutral Lipids” value (CF1 male mice; 5.0 mg/kg)?
Its value is 86 ± 5% of control.

What about the Phospholipids (CF1 male mice; 5.0 mg/kg) of the same substance?
Its Phospholipids is 92 ± 7% of control.

And the Protein (CF1 male mice; 5.0 mg/kg)?
The Protein was 92 ± 5% of control.

What about the Triglycerides (CF1 male mice; 5.0 mg/kg) of the same substance?
The Triglycerides was 38 ± 4% of control.

What about the Cholesterol (CF1 male mice; 10.0 mg/kg) of the same substance?
The Cholesterol was 77 ± 7% of control.

And the “Mg of Lipid” value (CF1 male mice; 10.0 mg/kg)?
Its value is 95 ± 6% of control.

What about the “Neutral Lipids” value (CF1 male mice; 10.0 mg/kg) of the same substance?
The value was 87 ± 4% of control.

And the Phospholipids (CF1 male mice; 10.0 mg/kg)?
The Phospholipids was 152 ± 8% of control.

And the Protein (CF1 male mice; 10.0 mg/kg)?
The Protein was 101 ± 8% of control.

What about the Triglycerides (CF1 male mice; 10.0 mg/kg) of the same substance?
Its Triglycerides is 36 ± 5% of control.
